Assay: LogPOW, octanol-water partition coefficient calculated from HPLC elution time via calibration curve
Format: physicochemical
Conditions: partition coefficient between 1-octanol and water, ODS-120T column, acetonitrile/0.6 mass % HClO4 aq. 1/1, 40° C.
Method: The LogPOW value is a partition coefficient between 1-octanol and water, and is represented by LogP, wherein P represents the ratio of (fluorosurfactant concentration in octanol)/(fluorosurfactant concentration in water) when an octanol/water (1:1) liquid mixture containing a fluorosurfactant is phase-separated.
The octanol-water partition coefficient represented by LogPOW is calculated as follows. HPLC is performed on standard substances (heptanoic acid, octanoic acid, nonanoic acid, and decanoic acid) each having a known octanol-water partition coefficient using TOSOH ODS-120T column (ϕ4.6 mm×250 mm) as a column and acetonitrile/0.6 mass % HClO4 aqueous solution=1/1 (vol/vol %) as an eluent at a flow rate of 1.0 ml/min, a sample amount of 300 μL, and a column temperature of 40° C., with detection light UV 210 nm. A calibration curve between the respective elution times and the known octanol-water partition coefficients is drawn, and the LogPOW value is calculated from the elution time of the sample liquid in HPLC based on the calibration curve.

Structure (SMILES) | LogPOW value | chromatographic logP
N.O=C(O)C(F)(OC(F)(F)C(F)(OC(F)(F)F)C(F)(F)F)C(F)(F)F (centres unmarked) [CF3OCF(CF3)CF2OCF(CF3)COONH4] | ≤ 3.4 | –
O=C(O)C(F)(F)C(F)(F)C(F)(F)C(F)(F)C(F)(F)C(F)(F)C(F)(F)F [PFOA, ammonium perfluorooctanoate] | – | 3.5
